According to PubChem BioAssay AID624131 (National Center for Advancing Translational Sciences (NCATS), 2012):

Test system: mouse liver microsomes, LC-MS/MS half-life
Assay: qHTS Assay to Find Inhibitors of T. brucei phosphofructokinase: Mouse Liver Microsome Stability
Details: at 1 µM; hits give high values

half-life: 3.85 h
Compound: O=C(Cc1ccc(Cl)c(Cl)c1)Nc1ccc(S(=O)(=O)Nc2ccon2)cc1
